Patent publication US20230303623A1, “PEPTIDES AND METHODS OF USE” (REALTA LIFE SCIENCES, INC., priority 2020, published 2023)
Entries after “also recorded” stand apart in the source; their conditions may differ.

Key:
[1] = tested on: antibody-initiated complement activation (lysis of AB human red blood cells by type O serum); experiment: ABO incompatibility hemolytic complement assay (CH50-type); format: cell-based; conditions: peptides 0.8 mg/ml (~0.5 mM), compared to parent peptide
Description: FIG. 1A-1B show PIC1 peptides' inhibition of complement activation in an ABO incompatibility assay. […] Inhibition of ABO incompatibility hemolysis in a CH50-type assay. Peptides are at a final concentration of 0.5 mM. Values are represented as a percent of the positive control, which consists of human 0 sera and AB red blood cells in GVBS^++ buffer. Data are the means of n=3 independent experiments±SEM.
For hemolytic complement assays, human red blood cells (RBCs) from type AB donors were purified, washed, and standardized to 1.0×10^9 cells/ml, as previously described. Human sera from type 0 donors at a 15% final concentration was combined with 0.5 mM of the peptides and the volume was brought up to 0.2 ml with GVBS^++ and 5.0×10^7 RBCs. The samples were incubated for 1 hour at 37° C. and then spun at 3,000 rpm for 5 minutes and the supernatant was collected and read at 412 nm. Values are represented as a percent of the positive control, which consists of human 0 sera and AB red blood cells in GVBS^++ buffer.
To assess the extent to which the peptide variants inhibit antibody-initiated complement activation, an ABO incompatibility ex vivo assay was utilized in which purified erythrocytes from a ‘type AB+’ donor are incubated with sera from a ‘type 0’ subject containing anti-A and anti-B antibodies. Peptides were tested at a concentration of 0.8 mg/ml (˜0.5 mM).

[2] = tested on: purified human Pan T-cells; experiment: T-cell exhaustion protocol (repeated CD3/CD28 Dynabead stimulation); format: cell-based; conditions: ELISA, listed as RLS-0122
Description: Purified human pan-T-cells were subject to stimulation with Dynabeads every 48 hours over the period of 8 days with cells also receiving PIC1 peptides (2 mg/ml) at each stimulation. Cells not receiving Dynabeads were run in parallel to assess background levels of Caspase 3/7 signal. At the eighth day, cells were harvested, and the levels of Caspase 3/7 determined by ELISA.
Purified human pan-T-cells were subject to stimulation with Dynabeads every 48 hours over the period of 8 days with cells also receiving PIC1 peptides (2 mg/ml) at each stimulation. Cell supernatants were collected at each stimulation and levels of IL-2 and IFN-gamma assayed by ELISA.
T-cell exhaustion is a form of T-cell dysfunction that occurs in cancer. It is generally defined by poor effector function, reduction in cytokine release (e.g., IL-2, TNF-alpha, IFN-gamma), sustained expression of inhibitory receptors (e.g., PD-1, LAG-3, CD244, CD160) with the progressive loss of effector function due to overstimulation. Exhaustion can prevent optimal control of tumor growth. Exhausted T cells are prevalent in the tumor microenvironment (TME) and can lead to T-cell apoptosis. T-cell exhaustion is reversible and pharmaceutical inhibition of T-cell exhaustion has been considered a promising strategy by many cancer researchers. To ascertain if PIC1 peptides could reverse T-cell exhaustion and increase T cell viability and effector function, a T-cell exhaustion protocol was developed. To induce T-cell exhaustion, purified human Pan T-cells were stimulated with T-Activator CD3/CD28 Dynabeads and cells were washed and re-stimulated every 48 hours. PIC1 peptides were added to the cells after each stimulation with Dynabeads. After three to four stimulations, cells were harvested for readouts which consisted of assessing T-cell apoptosis by measuring Caspase 3/7 levels and production of cytokines IL-2 and IFN-gamma, which are indicative of T-cell functionality. […] To further evaluate if PIC1 peptides could restore T-cell functionality in cells that have undergone the exhaustion protocol, the inventors next assessed production of cytokines IL-2 and IFN-gamma. Supernatants from the cells after each stimulation was collected and the cytokines measured by ELISA. […] The lower level of IFN-gamma signal was consistently seen in this assay.

TC-1 cells = experiment: TC-1 tumor cell model in C57Bl/6 mice; format: in vivo, mouse
Description: Animals were injected with 4×10^5 TC-1 cells subcutaneously into the flank of the animal. Five days later, animals received vehicle treatment with saline (n=6), or drug treatment with RLS-0122 (n=8) IV at 160 mg/kg 1×/day for 15 consecutive days. Animals were also evaluated for behavior and body condition scoring every 2 days for duration of the study. If scoring reached 7 or below, animals were assessed daily. A score of 5 or below was considered endpoint for euthanasia.
To evaluate the efficacy of RLS-0122 in an in vivo system, the inventors utilized the TC-1 tumor cell model in C57Bl/6 mice as previously reported (Roumenina et al., Cancer Immunol Res; 7(7) July 2019). […] When TC-1 cells are introduced into the flank of the mouse, very aggressive tumor formation occurs, resulting in 100% death in approximately 26 days. To test the efficacy of RLS-0122 on survival and quality of life in this model, animals were injected with 4×10^5 TC-1 cells subcutaneously into the flank of the animal. Five days later, animals received vehicle treatment with saline (n=6), or drug treatment with RLS-0122 (n=8) IV at 160 mg/kg 1×/day for 15 consecutive days. […] Animals were also evaluated for behavior and body condition scoring every 2 days for duration of the study. If scoring reached 7 or below, animals were assessed daily. A score of 5 or below was considered endpoint for euthanasia.

[3] = peptides 2 mg/ml, stimulation 2

In the case of “IAdLILEP(Sar)CCQERAA (IALILEPXCCQERAA; D-Leu; sarcosine; MOD_RES (3)..(3) D-amino acid; MOD_RES (8)..(8) Sarcosine) [PA-0122]”, the “inhibition of ABO incompatible hemolysis (complement inhibition), in words” value [1] is reported as “greater extent”, the “inhibition of ABO incompatible hemolysis (complement inhibition), in words” value ([1]; listed as RLS-0122) is reported as “potently block complement activation” and the “Caspase 3/7 levels, in words” value ([2]; peptides 2 mg/ml at each stimulation, day 8) is reported as “very low to undetectable levels; also recorded: reduced levels”. For the same substance, the “IFN-gamma levels in cell supernatants, in words” value [2, 3] was “detectable at stimulation 2; also recorded: increased levels”, the “IL-2 levels in cell supernatants, in words” value [2, 3] was “detectable IL-2 at stimulation 2; also recorded: increased levels” and the “median survival longer than vehicle” value (TC-1 cells; IV 160 mg/kg 1x/day for 15 consecutive days, p=0.0465) was 8 days. The “quality of life (behavior and body condition scoring), in words” value (TC-1 cells; IV 160 mg/kg 1x/day for 15 days, significant on days 22-26 (p<0.05)) was “increased quality of life”.
